Assays:
[1] = oral midazolam with fluconazole; cited from earlier work
[2] = cited from earlier work
[3] = Therapeutic drug monitoring of sirolimus trough concentration; format: in vivo, human
[4] = PopPK modeling; format: in vivo, human; conditions: for Vd: female, human, blood, oral

Compound	increase of AUC [1]	increase of C max [1]	variation in apparent oral clearance between patients ([2]; ciclosporin and prednisone coadministered)	apparent oral sirolimus clearance, population mean ([2]; estimated by Wu and coworkers)	sirolimus C min ([3]; 4.5 mg twice daily with fluconazole 400 mg/day)	sirolimus C min ([3]; 9 mg daily with oral fluconazole 400 mg once daily, day 3 after initiation)	sirolimus C min ([3]; after 1 week of 9 mg/day (assumed steady-state), no fluconazole)	sirolimus concentrations ([3]; afterward, during fluconazole, for more than 4 weeks)	mean sirolimus C min ([3]; maintenance dose 9 mg sirolimus/day, before fluconazole)	CL1 (apparent oral clearance, clearance from central compartment) ([4]; before fluconazole)	CL2 (clearance between central and peripheral compartments) ([4]; before fluconazole)	V 2 (volume of distribution of peripheral compartment) ([4]; before fluconazole)	CL1 (apparent oral clearance, clearance from central compartment) ([4]; during fluconazole)	CL2 (clearance between central and peripheral compartments) ([4]; during fluconazole)	V 2 (volume of distribution of peripheral compartment) ([4]; during fluconazole)	Vd [4]	Vd ([4]; 5 mg/day)
Cc1ncc2n1-c1ccc(Cl)cc1C(c1ccccc1F)=NC2 [midazolam]	270%	130%	–	–	–	–	–	–	–	–	–	–	–	–	–	–	–
CO[C@H]1C[C@@H]2CC[C@@H](C)[C@@](O)(O2)C(=O)C(=O)N2CCCC[C@H]2C(=O)O[C@H]([C@H](C)C[C@@H]2CC[C@@H](O)[C@H](OC)C2)CC(=O)[C@H](C)/C=C(\C)[C@@H](O)[C@@H](OC)C(=O)[C@H](C)C[C@H](C)/C=C/C=C/C=C/1C [sirolimus]	–	–	4.5 fold	12.9 L/h	8.2 ng/mL	4.7 ng/mL	2.9 to 4.2 ng/mL	3.1 to 9.5 ng/mL	3.5 ng/mL	30.7 L/h	253 L/h	305 L	14.1 L/h	8.56 L/h	361 L	81.3 L	33.7 L
